Results: article PMC4467398, “Preclinical antitumor activity of ST7612AA1: a new oral thiol-based histone deacetylase (HDAC) inhibitor” (Oncotarget, 2014)

Test system: DOHH2 and TMD8 DLBCL cells
Assay: Gene expression profiling (HumanHT-12 v4 BeadChip, limma), ST7612AA1 300 nM 8 hrs vs DMSO
Type: cell-based, human
Settings: 300 nM 8 hrs vs DMSO

`CC(=O)SCCCCC[C@H](NC(=O)[C@H]1CCC(=O)N1)C(=O)Nc1ccccc1` [ST7612AA1] was tested, and the “log ratio ESAM (probe ILMN_1668092)” value was 7.54E-01, the “log ratio EVI2A (ILMN_1733579)” value was -1.21E+00 and the “log ratio EXOSC8 (ILMN_1756162)” value was -8.59E-01. The “log ratio EXTL2 (ILMN_2388425)” value was 6.00E-01, the “log ratio F11R (probe ILMN_2342033)” value was 8.81E-01 and the “log ratio FAIM (ILMN_1690101)” value was -1.08E+00. For the same molecule, the “log ratio FAIM (ILMN_2351548)” value was -9.70E-01, the “log ratio FAM49A (ILMN_1794038)” value was 6.23E-01 and the “log ratio FAM65A (probe ILMN_1680037)” value was 7.70E-01. For the same molecule, the “log ratio FAM108A2 (ILMN_3178529)” value was 6.40E-01, the “log ratio FAM110A (ILMN_2323944)” value was 6.14E-01 and the “log ratio FAM116B (probe ILMN_1659029)” value was 7.74E-01. The “log ratio FAM120B (probe ILMN_1679641)” value was 7.62E-01, the “log ratio FAM136A (ILMN_1655307)” value was -1.26E+00 and the “log ratio FAM136B (ILMN_3241756)” value was -7.94E-01. The “log ratio FAM149B1 (probe ILMN_3245452)” value was 7.21E-01, the “log ratio FAM160B1 (ILMN_3231638)” value was -6.11E-01 and the “log ratio FAM164A (ILMN_1789558)” value was 6.20E-01. The “log ratio FAM167A (probe ILMN_3248511)” value was 7.13E-01, the “log ratio FBXO15 (ILMN_1755281)” value was 6.57E-01 and the “log ratio FBXO18 (probe ILMN_1729430)” value was 7.97E-01. For the same molecule, the “log ratio FCGRT (probe ILMN_1705302)” value was 6.92E-01, the “log ratio FCHSD2 (ILMN_1815734)” value was -6.17E-01 and the “log ratio FERMT3 (ILMN_2366330)” value was -1.23E+00. For the same molecule, the “log ratio FGD2 (probe ILMN_2115005)” value was 7.14E-01, the “log ratio FGF9 (probe ILMN_1762531)” value was 7.84E-01 and the “log ratio FHL1 (probe ILMN_1805842)” value was 7.76E-01. For the same molecule, the “log ratio FKBP11 (ILMN_1787345)” value was -9.71E-01, the “log ratio FLJ22795 (probe ILMN_2150802)” value was 8.56E-01 and the “log ratio FNBP1 (ILMN_1797342)” value was 6.67E-01. The “log ratio FOXC1 (probe ILMN_1738401)” value was 8.63E-01, the “log ratio FOXO1 (probe ILMN_1738816)” value was 8.61E-01 and the “log ratio FOXO4 (probe ILMN_1712095)” value was 6.93E-01. For the same molecule, the “log ratio FSD1 (probe ILMN_1813490)” value was 7.25E-01, the “log ratio FUCA1 (probe ILMN_1752728)” value was 8.57E-01 and the “log ratio FVT1 (ILMN_2154052)” value was 6.36E-01. The “log ratio FXYD5 (ILMN_2309848)” value was 6.27E-01, the “log ratio G6PD (probe ILMN_1697559)” value was 6.93E-01 and the “log ratio GABARAPL2 (probe ILMN_1796458)” value was 7.62E-01. For the same molecule, the “log ratio GAMT (probe ILMN_1756469)” value was 8.74E-01, the “log ratio GAPT (ILMN_1675191)” value was -1.10E+00 and the “log ratio GAPT (ILMN_3242271)” value was -1.08E+00. For the same molecule, the “log ratio GAR1 (ILMN_2412549)” value was -9.54E-01, the “log ratio GAR1 (ILMN_3263329)” value was -9.36E-01 and the “log ratio GATM (probe ILMN_1729180)” value was 7.75E-01. The “log ratio GATS (ILMN_1699631)” value was 6.00E-01, the “log ratio GBE1 (ILMN_1789702)” value was -8.91E-01 and the “log ratio GCDH (ILMN_2296843)” value was 6.56E-01. For the same molecule, the “log ratio GCH1 (probe ILMN_1812759)” value was 7.11E-01, the “log ratio GINS3 (ILMN_1754272)” value was -8.17E-01 and the “log ratio GM2A (ILMN_2221046)” value was 5.90E-01. For the same molecule, the “log ratio GMEB2 (ILMN_1683204)” value was -5.99E-01, the “log ratio GNG11 (ILMN_1782419)” value was 6.02E-01 and the “log ratio GOLGB1 (probe ILMN_1747935)” value was 7.13E-01. For the same molecule, the “log ratio GPATCH4 (ILMN_2383305)” value was -1.16E+00, the “log ratio GPATCH4 (ILMN_2383306)” value was -1.12E+00 and the “log ratio GPER (ILMN_1795298)” value was -1.70E+00. The “log ratio GPER (ILMN_2384056)” value was -1.82E+00, the “log ratio GPT2 (probe ILMN_1684158)” value was 8.12E-01 and the “log ratio GPX4 (ILMN_1734353)” value was 6.05E-01. The “log ratio GPX7 (ILMN_1726030)” value was -1.08E+00, the “log ratio GRB2 (ILMN_1748797)” value was 6.01E-01 and the “log ratio GRN (probe ILMN_1724250)” value was 8.24E-01. The “log ratio GRWD1 (ILMN_1742166)” value was -6.02E-01, the “log ratio GSDMB (ILMN_2347193)” value was 6.61E-01 and the “log ratio GSTO1 (ILMN_2227573)” value was -6.01E-01. The “log ratio GTF2B (ILMN_1737857)” value was 6.21E-01, the “log ratio GTF2I (ILMN_1673917)” value was -1.01E+00 and the “log ratio GTF2IRD2B (ILMN_1680501)” value was -1.15E+00. For the same molecule, the “log ratio GTF3C2 (ILMN_1746457)” value was -7.85E-01, the “log ratio GTF3C6 (ILMN_1691578)” value was -1.19E+00 and the “log ratio GTPBP6 (ILMN_1776080)” value was -8.00E-01. The “log ratio HABP4 (ILMN_1792384)” value was 5.90E-01, the “log ratio HABP4 (probe ILMN_2107991)” value was 7.82E-01 and the “log ratio HAGH (probe ILMN_1772731)” value was 8.84E-01. For the same molecule, the “log ratio HCFC1 (ILMN_1732705)” value was -1.50E+00, the “log ratio HDDC2 (ILMN_1753745)” value was -8.45E-01 and the “log ratio HDGF (ILMN_1765621)” value was -8.47E-01. For the same molecule, the “log ratio HERC1 (probe ILMN_1786211)” value was 7.40E-01, the “log ratio HERC6 (ILMN_1654639)” value was -6.08E-01 and the “log ratio HERPUD1 (probe ILMN_2374159)” value was 8.50E-01. The “log ratio HEY1 (probe ILMN_1788203)” value was 8.91E-01, the “log ratio HEY2 (probe ILMN_1682034)” value was 7.56E-01 and the “log ratio HIST1H1C (probe ILMN_1757406)” value was 8.24E-01. The “log ratio HIST2H2AA3 (probe ILMN_2144426)” value was 8.03E-01, the “log ratio HK2 (ILMN_1723486)” value was -1.09E+00 and the “log ratio HLA-DOA (ILMN_1659075)” value was 6.55E-01. For the same molecule, the “log ratio HLA-DPA1 (probe ILMN_1772218)” value was 8.12E-01, the “log ratio HLA-DQA1 (probe ILMN_1808405)” value was 8.25E-01 and the “log ratio HLA-DRB4 (probe ILMN_1752592)” value was 7.27E-01. The “log ratio HLA-DRB6 (ILMN_2066066)” value was 5.94E-01, the “log ratio HLA-E (probe ILMN_1765258)” value was 8.07E-01 and the “log ratio HLTF (ILMN_1798588)” value was 6.54E-01. For the same molecule, the “log ratio HLTF (probe ILMN_1673820)” value was 7.48E-01, the “log ratio HNRNPR (ILMN_3177285)” value was -5.97E-01 and the “log ratio HNRPH3 (ILMN_1654920)” value was -7.98E-01. The “log ratio HNRPLL (ILMN_1791575)” value was 6.20E-01, the “log ratio HOOK2 (probe ILMN_1682147)” value was 7.36E-01 and the “log ratio HPSE (ILMN_1779547)” value was 5.94E-01. The “log ratio HSD17B8 (ILMN_1715324)” value was 6.72E-01, the “log ratio HSPA1B (probe ILMN_1660436)” value was 7.16E-01 and the “log ratio HSPC111 (ILMN_1704055)” value was -1.16E+00. For the same molecule, the “log ratio ID1 (probe ILMN_1664861)” value was 7.75E-01, the “log ratio IFFO1 (probe ILMN_2348268)” value was 8.07E-01 and the “log ratio IFI16 (ILMN_1710937)” value was -9.06E-01. The “log ratio IFI35 (ILMN_1745374)” value was -8.00E-01, the “log ratio IFRD2 (ILMN_1742031)” value was -7.99E-01 and the “log ratio IGSF3 (probe ILMN_1704353)” value was 8.50E-01. For the same molecule, the “log ratio INTS10 (ILMN_1679483)” value was -8.21E-01, the “log ratio IRAK1 (ILMN_2379130)” value was -1.37E+00 and the “log ratio IRAK2 (ILMN_1745964)” value was 6.17E-01. For the same molecule, the “log ratio ISG20L1 (ILMN_1814282)” value was -8.55E-01, the “log ratio ISOC2 (ILMN_1769158)” value was -9.83E-01 and the “log ratio ITFG2 (ILMN_1701244)” value was -8.71E-01. For the same molecule, the “log ratio ITFG3 (ILMN_1810055)” value was 6.64E-01, the “log ratio ITGA4 (ILMN_1747052)” value was -6.00E-01 and the “log ratio ITGB1 (ILMN_1723467)” value was 6.32E-01. For the same molecule, the “log ratio ITGB1 (ILMN_2383934)” value was 6.80E-01, the “log ratio ITGB1 (probe ILMN_1714820)” value was 7.06E-01 and the “log ratio ITPKA (probe ILMN_1776516)” value was 7.10E-01. For the same molecule, the “log ratio JAK1 (probe ILMN_1793384)” value was 7.91E-01, the “log ratio KAT2A (ILMN_1782247)” value was -6.02E-01 and the “log ratio KBTBD2 (ILMN_1784540)” value was -6.12E-01. The “log ratio KEAP1 (ILMN_2410771)” value was -8.88E-01, the “log ratio KEAP1 (ILMN_2410772)” value was -9.23E-01 and the “log ratio KIAA0020 (ILMN_1665483)” value was -7.91E-01. The “log ratio KIAA0368 (ILMN_1847822)” value was -1.24E+00, the “log ratio KIAA1602 (ILMN_1763640)” value was 6.30E-01 and the “log ratio KIF3B (ILMN_1702279)” value was 6.21E-01. The “log ratio KIFC2 (ILMN_1803018)” value was 6.72E-01, the “log ratio KLF9 (ILMN_1778523)” value was 6.77E-01 and the “log ratio KLHDC5 (ILMN_1727134)” value was -1.09E+00. The “log ratio KLHL5 (probe ILMN_1706687)” value was 8.05E-01, the “log ratio KLRAQ1 (probe ILMN_3271092)” value was 7.11E-01 and the “log ratio KPNB1 (ILMN_1703949)” value was -1.01E+00. The “log ratio L3MBTL2 (ILMN_3307786)” value was -8.52E-01, the “log ratio LAMC1 (ILMN_1810852)” value was 6.63E-01 and the “log ratio LANCL2 (ILMN_1708009)” value was -8.15E-01. For the same molecule, the “log ratio LARP1B (ILMN_1733390)” value was -7.84E-01, the “log ratio LASS2 (ILMN_1726108)” value was -7.85E-01 and the “log ratio LASS2 (ILMN_2400500)” value was -9.26E-01. The “log ratio LCMT1 (probe ILMN_1688452)” value was 7.21E-01, the “log ratio LCMT1 (probe ILMN_2336186)” value was 7.52E-01 and the “log ratio LIN9 (ILMN_2137084)” value was -6.10E-01. For the same molecule, the “log ratio LMNA (probe ILMN_1737394)” value was 7.98E-01, the “log ratio LOC151162 (probe ILMN_3238058)” value was 7.72E-01 and the “log ratio LOC205251 (ILMN_1693685)” value was -6.17E-01. For the same molecule, the “log ratio LOC253039 (probe ILMN_3236498)” value was 8.10E-01, the “log ratio LOC283683 (probe ILMN_1659327)” value was 8.30E-01 and the “log ratio LOC285176 (ILMN_1694327)” value was -5.99E-01.
